Laboratory results taken from patent publication US20120231482A1, “METHOD, KIT OR DIAGNOSTIC FOR THE DETECTION OF REAGENTS WHICH INDUCE ALTERED CONTRACTILITY” (THE JOHNS HOPKINS UNIVERSITY, priority 2009, published 2012).

Columns and labels:
[1] = tested on: intact trabeculae; assay: Steady-state force-[Ca2+]i relationship in intact trabeculae (tetanized with ryanodine); type: cell-based, rat; design: [Ca2+]i required for 50% of activation (Ca50): unit not given here
[2] = biological target: T1, actin (Rattus norvegicus, UniProt P68035); assay: Gel shift assay, reducing/non-reducing western blot of cardiac myofibrils; type: biochemical; conditions: for actin higher molecular weight forms: non-reducing, lost with 5 mM DTT
T1 construct: Rat myofibrillar preparations, as described in [7], were obtained from frozen ventricles (Pel Freez Biologicals); tissue Pel Freez Biologicals; host or cells: myofibrils from frozen rat ventricles
Method: (§1) FIG. 4. Validation and characterizations of HNO modifications. 1 μg of rat cardiac myofibrils treated with HNO donors or control compounds were separated under reducing or nonreducing conditions and western blots probed for candidate proteins tropomyosin, actin, myosin heavy chain, myosin light chain 1 (n=4). […] Silver stained gel analysis indicated a protein band with […] gel mobility that was lost with DTT.
FIG. 5. Evaluation of the interaction between actin and tropomyosin with NCA treatment. Purified rabbit skeletal tropomyosin (0.03 μg) and isolated rat cardiac myofibrils (1 μg) were treated with NCA or AS and evaluated by 1D non-reducing western blot probing for tropomyosin (A) and actin (B) (n=3). […] (C) Fluorescent DIGE analysis of samples from A and B independent labeled indicates NCA specific band (green) above purified TM (blue) and below AS treated myofibrils (red) (n=3). (D) MS analysis of the same gel region identified both tropomyosin and actin in non-reduced lane but not with DTT treatment (n=2).
Gel shift assay. 10 μg of rat myofibrils/treatment were diluted to 0.5 μg/μl in HEN including 0.1% (w/v) SDS and exposed to a treatment for 20 min at 37° C. Samples were diluted to 0.1 ug/ul in 1×LSD sample buffer, treated with 0, 5 or 100 mM DTT and separated by SDS PAGE. Proteins were silver stained or transferred to nitrocellulose and immunoblotted with primary antibodies for tropomyosin sarcomeric (CH1, Sigma-Aldrich Co., St. Louis, Mo., USA), actin (AC-40, Sigma-Aldrich Co., St. Louis, Mo., USA), myosin light chain 1 (MLM527, Abcam, Cambridge, Mass., USA) or myosin heavy chain (3-48, Abcam, Cambridge, Mass., USA). For some silver stained gel bands of interest in-gel digestion was done following the protocol outlined in Shevchenko et al.. Gel slices of interest were excised from the gels cut into 1 mm^3 pieces. Silver stained gel pieces were destained in 1:1(v/v) 30 mM Potassium ferricyanide and 100 mM Sodium thiosulfate and wash three times with ddH2O. Gel pieces were dehydrated in 100% acetonitrile and reswelled in 10 mM DTT and incubated at 55° C. for 1 hour. After the DTT solution was removed, a solution of 55 mM iodoacetimide was added and gel slices were incubated at room temperature protected from light. Gel slices were then washed 3 times with 50% (v/v) ACN, 25 mM (NH4)HCO3 and then fully dehydrated in 100% ACN and dried in a speed vac. Gel pieces were reswelled in a 12.5 ng/μL trypsin (Promega, Madison Wis. USA) solution containing 25 mM (NH4)HCO3 and incubated at 37° C. for >16 hours. Digested peptides were extracted by addition of 5% (v/v) formic acid and incubation for 15 min followed by addition of an equal volume of 100% ACN and 15 min incubation, this step was repeated and the extracts were combined. […]

[3] = biological target: T2, myosin heavy chain and light chain 1 (Rattus norvegicus, UniProt P02563+P16409); assay: as above; type: biochemical; conditions: non-reducing; lost with 5 mM DTT
T2 construct: 1 μg of rat cardiac myofibrils treated with HNO donors or control compounds; tissue Pel Freez Biologicals; host or cells: myofibrils from frozen rat ventricles
T2 sequence (P02563 whole entry): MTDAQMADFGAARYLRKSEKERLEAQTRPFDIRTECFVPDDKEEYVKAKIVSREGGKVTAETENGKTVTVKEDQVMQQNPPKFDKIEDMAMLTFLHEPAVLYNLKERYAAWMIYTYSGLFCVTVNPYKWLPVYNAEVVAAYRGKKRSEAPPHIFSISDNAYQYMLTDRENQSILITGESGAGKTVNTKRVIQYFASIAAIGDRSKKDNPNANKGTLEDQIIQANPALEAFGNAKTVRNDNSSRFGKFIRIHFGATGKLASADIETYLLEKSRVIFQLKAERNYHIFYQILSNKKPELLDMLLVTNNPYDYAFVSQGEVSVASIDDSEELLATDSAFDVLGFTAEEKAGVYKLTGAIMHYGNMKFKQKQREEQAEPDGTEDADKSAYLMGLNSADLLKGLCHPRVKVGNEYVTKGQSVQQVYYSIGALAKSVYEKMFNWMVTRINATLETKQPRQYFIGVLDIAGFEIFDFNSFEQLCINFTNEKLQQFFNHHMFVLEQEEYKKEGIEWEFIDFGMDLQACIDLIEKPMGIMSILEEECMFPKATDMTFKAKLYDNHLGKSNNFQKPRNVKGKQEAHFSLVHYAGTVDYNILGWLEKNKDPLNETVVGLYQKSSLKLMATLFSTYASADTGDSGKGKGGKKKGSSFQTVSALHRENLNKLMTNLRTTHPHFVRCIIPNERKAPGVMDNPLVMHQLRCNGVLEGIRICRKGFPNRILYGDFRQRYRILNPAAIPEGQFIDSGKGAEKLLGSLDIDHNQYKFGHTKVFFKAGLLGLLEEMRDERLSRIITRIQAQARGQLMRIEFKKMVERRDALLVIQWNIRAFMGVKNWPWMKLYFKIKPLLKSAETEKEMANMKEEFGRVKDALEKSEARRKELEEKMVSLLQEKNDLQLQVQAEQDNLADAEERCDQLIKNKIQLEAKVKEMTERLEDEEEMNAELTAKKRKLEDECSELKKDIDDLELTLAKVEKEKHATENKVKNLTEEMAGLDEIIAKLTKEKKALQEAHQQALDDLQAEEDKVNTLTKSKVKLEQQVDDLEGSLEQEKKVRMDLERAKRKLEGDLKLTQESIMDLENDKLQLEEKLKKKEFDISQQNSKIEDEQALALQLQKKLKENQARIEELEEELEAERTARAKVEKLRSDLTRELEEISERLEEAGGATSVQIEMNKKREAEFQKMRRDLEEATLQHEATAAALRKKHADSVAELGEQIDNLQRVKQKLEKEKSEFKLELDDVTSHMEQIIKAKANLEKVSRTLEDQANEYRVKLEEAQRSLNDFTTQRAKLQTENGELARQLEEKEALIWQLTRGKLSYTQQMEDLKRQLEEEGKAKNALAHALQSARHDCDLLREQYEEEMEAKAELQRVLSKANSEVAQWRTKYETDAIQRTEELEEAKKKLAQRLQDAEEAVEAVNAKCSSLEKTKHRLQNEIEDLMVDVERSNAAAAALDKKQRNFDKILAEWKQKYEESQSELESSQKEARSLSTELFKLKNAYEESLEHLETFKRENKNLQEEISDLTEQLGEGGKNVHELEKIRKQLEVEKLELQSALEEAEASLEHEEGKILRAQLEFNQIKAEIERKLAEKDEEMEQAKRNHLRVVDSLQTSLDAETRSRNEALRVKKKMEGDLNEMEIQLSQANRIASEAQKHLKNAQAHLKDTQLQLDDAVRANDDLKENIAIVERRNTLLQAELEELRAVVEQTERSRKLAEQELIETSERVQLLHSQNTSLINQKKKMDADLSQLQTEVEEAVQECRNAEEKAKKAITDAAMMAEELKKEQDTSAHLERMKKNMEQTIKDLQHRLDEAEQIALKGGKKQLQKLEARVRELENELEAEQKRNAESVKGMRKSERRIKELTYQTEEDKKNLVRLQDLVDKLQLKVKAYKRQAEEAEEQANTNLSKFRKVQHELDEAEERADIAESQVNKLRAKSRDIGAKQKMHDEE
T2 sequence (P16409 2-200 limits assumed): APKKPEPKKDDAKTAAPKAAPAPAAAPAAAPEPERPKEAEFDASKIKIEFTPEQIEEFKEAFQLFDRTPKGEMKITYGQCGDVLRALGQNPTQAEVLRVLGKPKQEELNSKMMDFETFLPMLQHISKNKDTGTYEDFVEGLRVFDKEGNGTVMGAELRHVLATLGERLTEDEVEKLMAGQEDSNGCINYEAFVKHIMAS
T2 sequence (P08733 2-166 partner limits assumed): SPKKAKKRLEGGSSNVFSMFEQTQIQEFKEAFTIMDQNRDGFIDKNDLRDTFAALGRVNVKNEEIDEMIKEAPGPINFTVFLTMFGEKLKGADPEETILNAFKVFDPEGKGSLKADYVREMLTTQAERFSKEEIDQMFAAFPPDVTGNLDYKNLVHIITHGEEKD
Method: as §1
Gel shift assay. 10 μg of rat myofibrils/treatment were diluted to 0.5 μg/μl in HEN including 0.1% (w/v) SDS and exposed to a treatment for 20 min at 37° C. Samples were diluted to 0.1 ug/ul in 1×LSD sample buffer, treated with 0, 5 or 100 mM DTT and separated by SDS PAGE. Proteins were silver stained or transferred to nitrocellulose and immunoblotted with primary antibodies for tropomyosin sarcomeric (CH1, Sigma-Aldrich Co., St. Louis, Mo., USA), actin (AC-40, Sigma-Aldrich Co., St. Louis, Mo., USA), myosin light chain 1 (MLM527, Abcam, Cambridge, Mass., USA) or myosin heavy chain (3-48, Abcam, Cambridge, Mass., USA). For some silver stained gel bands of interest in-gel digestion was done following the protocol outlined in Shevchenko et al.. Gel slices of interest were excised from the gels cut into 1 mm^3 pieces. Silver stained gel pieces were destained in 1:1(v/v) 30 mM Potassium ferricyanide and 100 mM Sodium thiosulfate and wash three times with ddH2O. […]

[4] = AS applied to isolated trebecula or skinned muscle preparations

Row | Compound | Ca50 [1, 4] | Hill coefficient [1, 4] | maximum force of contraction [1, 4] | actin higher molecular weight forms [2] | MLC1 homodimer population [3] | Hill ([1]; NCA 20 μmol/L, intact muscles) | [Ca2+]i required for 50% of activation (Ca50) ([1]; NCA 20 μmol/L, intact muscles) | maximal Ca2+-activated force (Fmax) ([1]; NCA 20 μmol/L, intact muscles) | antibody epitope binding of monomeric actin ([2]; western blot)
1 | [Na+].[Na+].[O-][N+]([O-])=NO [AS, Angeli's Salt] | without altering | without altering | increase | approximately 80 kDa | ~50 kDa | – | – | – | –
2 | CC(=O)OC1(N=O)CCCCC1 [NCA, 1-nitrosocyclohexylacetate] | – | – | – | approximately 80 kDa | ~50 kDa | 4.92±0.84 | 0.42±0.01 | 123±18 mN/mm^2 | loss of antibody epitope binding
